Key:
[1] = system: Pseudomonas aeruginosa ATCC 27853; assay: MBEC assay, biofilm inhibition (prevention of biofilm formation), MBEC bioFILM PA panel; type: cell-based; parameters: MBEC-Biofilm Inhibition, Without compound 9 / MBEC-Biofilm Inhibition, Without compound 6 / MBEC-Biofilm Inhibition, Without compound 2 / MBEC-Biofilm Inhibition, Without compound 7 / MBEC-Biofilm Inhibition, With 0.01% compound 7 in 5% EtOH/PBS / MBEC-Biofilm Inhibition, without salt of compound 2 / MBEC-Biofilm Inhibition, with 0.1% salt of compound 2 / MBEC-Biofilm Inhibition, without salt of compound 6: unit not given here; conditions: for MBEC-Biofilm Inhibition, without salt of compound 2 / MBEC-Biofilm Inhibition, with 0.1% salt of compound 2: Table 9; for MBEC-Biofilm Inhibition, without salt of compound 2 / MBEC-Biofilm Inhibition, without salt of compound 6: antibiotic or antibiotic combination alone; for MBEC-Biofilm Inhibition, without salt of compound 2 / MBEC-Biofilm Inhibition, with 0.1% salt of compound 2 / MBEC-Biofilm Inhibition, without salt of compound 6 / MBEC-Biofilm Inhibition, with 0.1% salt of compound 6: value per component; for MBEC-Biofilm Inhibition, without salt of compound 2: separated by /; for MBEC-Biofilm Inhibition, with 0.1% salt of compound 2: antibiotic or combination plus 0.1% salt of compound 2; for MBEC-Biofilm Inhibition, without salt of compound 6 / MBEC-Biofilm Inhibition, with 0.1% salt of compound 6: Table 10; for MBEC-Biofilm Inhibition, with 0.1% salt of compound 6: antibiotic or combination plus 0.1% salt of compound 6; for MBEC-Biofilm Inhibition, Without compound 1 / MBEC-Biofilm Inhibition, Without compound 2 / MBEC-Biofilm Inhibition, Without compound 3 / MBEC-Biofilm Inhibition, Without compound 6 / MBEC-Biofilm Inhibition, Without compound 7 / MBEC-Biofilm Inhibition, Without compound 9: antibiotic alone
[2] = system: Pseudomonas aeruginosa ATCC 27853; assay: MBEC assay, biofilm elimination, MBEC bioFILM PA panel; type: cell-based; parameters: MBEC-Biofilm Elimination, Without compound 2 / MBEC-Biofilm Elimination, With 0.01% compound 2 in 5% EtOH/PBS / MBEC-Biofilm Elimination, Without compound 7 / MBEC-Biofilm Elimination, With 0.01% compound 7 in 5% EtOH/PBS / MBEC-Biofilm Elimination, Without compound 1 / MBEC-Biofilm Elimination, With 0.01% compound 1 in 5% EtOH/PBS / MBEC-Biofilm Elimination, without salt of compound 2 / MBEC-Biofilm Elimination, with 0.1% salt of compound 2: unit not given here; conditions: for MBEC-Biofilm Elimination, without salt of compound 2 / MBEC-Biofilm Elimination, with 0.1% salt of compound 2: Table 9; for MBEC-Biofilm Elimination, without salt of compound 2 / MBEC-Biofilm Elimination, without salt of compound 6: antibiotic or antibiotic combination alone; for MBEC-Biofilm Elimination, without salt of compound 2 / MBEC-Biofilm Elimination, with 0.1% salt of compound 2 / MBEC-Biofilm Elimination, without salt of compound 6 / MBEC-Biofilm Elimination, with 0.1% salt of compound 6: value per component; for MBEC-Biofilm Elimination, with 0.1% salt of compound 2: antibiotic or combination plus 0.1% salt of compound 2; for MBEC-Biofilm Elimination, without salt of compound 6 / MBEC-Biofilm Elimination, with 0.1% salt of compound 6: Table 10; for MBEC-Biofilm Elimination, with 0.1% salt of compound 6: antibiotic or combination plus 0.1% salt of compound 6; for MBEC-Biofilm Elimination, Without compound 1 / MBEC-Biofilm Elimination, Without compound 2 / MBEC-Biofilm Elimination, Without compound 3 / MBEC-Biofilm Elimination, Without compound 6 / MBEC-Biofilm Elimination, Without compound 7 / MBEC-Biofilm Elimination, Without compound 9: antibiotic alone

## CC(C)(O/N=C(\C(=O)N[C@@H]1C(=O)N2C(C(=O)[O-])=C(C[n+]3ccccc3)CS[C@H]12)c1csc(N)n1)C(=O)O [CAZ, ceftazidime]
[1]
  MBEC-Biofilm Inhibition, without salt of compound 2: >4
  MBEC-Biofilm Inhibition, with 0.1% salt of compound 2: >4
  MBEC-Biofilm Inhibition, without salt of compound 6: >4
  MBEC-Biofilm Inhibition, with 0.1% salt of compound 6: >4
  MBEC-Biofilm Inhibition, Without compound 1: >4
  MBEC-Biofilm Inhibition, Without compound 2: >4
  MBEC-Biofilm Inhibition, Without compound 3: >4
  MBEC-Biofilm Inhibition, Without compound 6: >4
  MBEC-Biofilm Inhibition, Without compound 7: >4
  MBEC-Biofilm Inhibition, Without compound 9: >4
  MBEC-Biofilm Inhibition, With 0.01% compound 1 in 5% EtOH/PBS: >4
  MBEC-Biofilm Inhibition, With 0.01% compound 2 in 5% EtOH/PBS: >4
  MBEC-Biofilm Inhibition, With 0.01% compound 7 in 5% EtOH/PBS: >4
  MBEC-Biofilm Inhibition, With 0.05% compound 3 in 5% EtOH/PBS: >4
  MBEC-Biofilm Inhibition, With 0.05% compound 6 in 5% EtOH/PBS: >4
  MBEC-Biofilm Inhibition, With 0.1% w/v compound 9 in PBS: >4
[2]
  MBEC-Biofilm Elimination, without salt of compound 2: >4
  MBEC-Biofilm Elimination, with 0.1% salt of compound 2: >4
  MBEC-Biofilm Elimination, without salt of compound 6: >4
  MBEC-Biofilm Elimination, with 0.1% salt of compound 6: >4
  MBEC-Biofilm Elimination, Without compound 1: >4
  MBEC-Biofilm Elimination, Without compound 2: >4
  MBEC-Biofilm Elimination, Without compound 3: >4
  MBEC-Biofilm Elimination, Without compound 6: >4
  MBEC-Biofilm Elimination, Without compound 7: >4
  MBEC-Biofilm Elimination, Without compound 9: >4
  MBEC-Biofilm Elimination, With 0.01% compound 1 in 5% EtOH/PBS: >4
  MBEC-Biofilm Elimination, With 0.01% compound 2 in 5% EtOH/PBS: >4
  MBEC-Biofilm Elimination, With 0.01% compound 7 in 5% EtOH/PBS: >4
  MBEC-Biofilm Elimination, With 0.05% compound 3 in 5% EtOH/PBS: >4
  MBEC-Biofilm Elimination, With 0.05% compound 6 in 5% EtOH/PBS: >4
  MBEC-Biofilm Elimination, With 0.1% w/v compound 9 in PBS: >4

## C[C@H]1[C@H](NC(=O)/C(=N\OC(C)(C)C(=O)O)c2csc(N)n2)C(=O)N1S(=O)(=O)O [AZT, astreonam]
[1]
  MBEC-Biofilm Inhibition, without salt of compound 2: >4
  MBEC-Biofilm Inhibition, with 0.1% salt of compound 2: >4
  MBEC-Biofilm Inhibition, without salt of compound 6: >4
  MBEC-Biofilm Inhibition, with 0.1% salt of compound 6: >4
  MBEC-Biofilm Inhibition, Without compound 1: >4
  MBEC-Biofilm Inhibition, Without compound 2: >4
  MBEC-Biofilm Inhibition, Without compound 3: >4
  MBEC-Biofilm Inhibition, Without compound 6: >4
  MBEC-Biofilm Inhibition, Without compound 7: >4
  MBEC-Biofilm Inhibition, Without compound 9: >4
  MBEC-Biofilm Inhibition, With 0.01% compound 1 in 5% EtOH/PBS: >4
  MBEC-Biofilm Inhibition, With 0.01% compound 2 in 5% EtOH/PBS: >4
  MBEC-Biofilm Inhibition, With 0.01% compound 7 in 5% EtOH/PBS: >4
  MBEC-Biofilm Inhibition, With 0.05% compound 3 in 5% EtOH/PBS: >4
  MBEC-Biofilm Inhibition, With 0.05% compound 6 in 5% EtOH/PBS: >4
  MBEC-Biofilm Inhibition, With 0.1% w/v compound 9 in PBS: >4
[2]
  MBEC-Biofilm Elimination, without salt of compound 2: >4
  MBEC-Biofilm Elimination, with 0.1% salt of compound 2: >4
  MBEC-Biofilm Elimination, without salt of compound 6: >4
  MBEC-Biofilm Elimination, with 0.1% salt of compound 6: >4
  MBEC-Biofilm Elimination, Without compound 1: >4
  MBEC-Biofilm Elimination, Without compound 2: >4
  MBEC-Biofilm Elimination, Without compound 3: >4
  MBEC-Biofilm Elimination, Without compound 6: >4
  MBEC-Biofilm Elimination, Without compound 7: >4
  MBEC-Biofilm Elimination, Without compound 9: >4
  MBEC-Biofilm Elimination, With 0.01% compound 1 in 5% EtOH/PBS: >4
  MBEC-Biofilm Elimination, With 0.01% compound 2 in 5% EtOH/PBS: >4
  MBEC-Biofilm Elimination, With 0.01% compound 7 in 5% EtOH/PBS: >4
  MBEC-Biofilm Elimination, With 0.05% compound 3 in 5% EtOH/PBS: >4
  MBEC-Biofilm Elimination, With 0.05% compound 6 in 5% EtOH/PBS: >4
  MBEC-Biofilm Elimination, With 0.1% w/v compound 9 in PBS: >4

## gentamicin [GM]
[1]
  MBEC-Biofilm Inhibition, without salt of compound 2: >2
  MBEC-Biofilm Inhibition, with 0.1% salt of compound 2: >2
  MBEC-Biofilm Inhibition, without salt of compound 6: >2
  MBEC-Biofilm Inhibition, with 0.1% salt of compound 6: >2
  MBEC-Biofilm Inhibition, Without compound 1: >2
  MBEC-Biofilm Inhibition, Without compound 2: >2
  MBEC-Biofilm Inhibition, Without compound 3: >2
  MBEC-Biofilm Inhibition, Without compound 6: >2
  MBEC-Biofilm Inhibition, Without compound 7: >2
  MBEC-Biofilm Inhibition, Without compound 9: >2
  MBEC-Biofilm Inhibition, With 0.01% compound 1 in 5% EtOH/PBS: >2
  MBEC-Biofilm Inhibition, With 0.01% compound 2 in 5% EtOH/PBS: >2
  MBEC-Biofilm Inhibition, With 0.01% compound 7 in 5% EtOH/PBS: >2
  MBEC-Biofilm Inhibition, With 0.05% compound 3 in 5% EtOH/PBS: >2
  MBEC-Biofilm Inhibition, With 0.05% compound 6 in 5% EtOH/PBS: >2
  MBEC-Biofilm Inhibition, With 0.1% w/v compound 9 in PBS: >2
[2]
  MBEC-Biofilm Elimination, without salt of compound 2: >2
  MBEC-Biofilm Elimination, with 0.1% salt of compound 2: >2
  MBEC-Biofilm Elimination, without salt of compound 6: >2
  MBEC-Biofilm Elimination, with 0.1% salt of compound 6: >2
  MBEC-Biofilm Elimination, Without compound 1: >2
  MBEC-Biofilm Elimination, Without compound 2: >2
  MBEC-Biofilm Elimination, Without compound 3: >2
  MBEC-Biofilm Elimination, Without compound 6: >2
  MBEC-Biofilm Elimination, Without compound 7: >2
  MBEC-Biofilm Elimination, Without compound 9: 2
  MBEC-Biofilm Elimination, With 0.01% compound 1 in 5% EtOH/PBS: 2
  MBEC-Biofilm Elimination, With 0.01% compound 2 in 5% EtOH/PBS: >2
  MBEC-Biofilm Elimination, With 0.01% compound 7 in 5% EtOH/PBS: 2
  MBEC-Biofilm Elimination, With 0.05% compound 3 in 5% EtOH/PBS: >2
  MBEC-Biofilm Elimination, With 0.05% compound 6 in 5% EtOH/PBS: >2
  MBEC-Biofilm Elimination, With 0.1% w/v compound 9 in PBS: >2

Source: US20090016990A1, “Antimicrobial Compositions” (priority 2007, published 2009)
